Results published in patent US10166211B1, “Nitric oxide releasing compound, pharmaceutical composition, use and synthesis method thereof” (NATIONAL CHIAO TUNG UNIVERSITY, priority 2017, dated 2019).

What was measured:
[1] = tested on: EAHY926 cells; experiment: Wound healing assay (in vitro scratch); assay type: cell-based, human; details: EAHY926, 7.8 μM, 1 mm wide line, 24th hour, FIGS. 9A-9I
Method: (§1) In the present disclosure, the cell line for the cell experiment is EAHY926 (human vascular endothelial cell line), and the mouse strain for the animal experiment is BALB/c Nude mouse.
EAHY926 cells were seeded in cell culture plates at 37° C. […] A 1 millimeter (mm) wide line was scraped off in a culture plate, and images of the culture were taken within the first hour and the 24th hour to record and quantify the percentage of wound healing.

[2] = tested on: EAHY926 cells; experiment: Cell viability (MTT) of the cell cultures of the wound healing test; assay type: cell-based, human; details: EAHY926, 7.8 μM, FIG. 11
Description: (§2) In this experiment, 3-(4,5-cimethylthiazol-2-yl)-2,5-diphenyl tetrazolium bromide (also called MTT) was used for testing cell viability. MTT is a yellow compound and a dye that accepts hydrogen ions and acts on the respiratory chain of living cell mitochondria. Under the action of succinate dehydrogenase (SDH) and cytochrome C, the tetrazolium ring of MTT will be cracked to generate blue color crystals. The formation of crystals is proportional to the number of living cells (in dead cells, because there is no active succinate dehydrogenase, MTT cannot be reduced). The O.D value can indirectly represent cell viability because of the MTT reduction ability of living cells.
In the present experimental example, then the cell viability was assayed by adding MTT reagent to the various cell cultures of wound healing test. The results are shown in FIG. 11, among all of the groups, the group treated with RRE-1 had the highest cell viability. The result corresponds to the result of FIG. 4. In FIG. 11, the effects of cell viability were ranked as RRE-1>DPTA>MAHMA. The trend is similar to the result of FIG. 10.

[3] = tested on: VEGFR-2; experiment: Western blot assay, VEGFR-2 expression; assay type: cell-based, human; details: EAHY926, 7.8 μM, 24 hours, FIG. 12
Method: (§3) In the literature, nitric oxide releasing agents have the potential for promoting angiogenesis and wound healing in vivo, and are also clinically useful agents that can effectively promote the expression of vascular endothelial growth factor receptor 2 (VEGFR2). Therefore, this experiment intended to test the effect of the respective various nitric oxide releasing agents on the expression of angiogenesis-related proteins (e.g., TIE-2, and VEGFR-2).
(§4) EAHY926 cells were seeded in cell culture dishes at 37° C. […] After 24 hours incubation, the cultures were washed with PBS three times and added 250 microliters (μL) of cell lysis buffer, then the cells were scraped and the proteins of the cells were extracted for Western blot experiment.

[4] = tested on: zebrafish with fluorescence gene Tg (fli1: EGFP) y1; experiment: In vivo angiogenesis assay in zebrafish; details: 7.8 μM
Method: In this experiment, zebrafish with fluorescence gene Tg (fli1: EGFP) y1 were used for in vivo angiogenesis analysis. The zebrafish nutrient solutions were respectively added with the respective various nitric oxide releasing agents at 7.8 μM concentration. The zebrafish were incubated with nitric oxide releasing agents for 24 to 48 hours. The confocal microscopy images were taken at the beginning, the 24th hour, and the 48th hour after incubation, and semi-quantitative analysis of neovascularization in zebrafish oocysts was performed.
FIGS. 14A to 14E show images taken within the first hour after addition of the nitric oxide releasing agents. FIGS. 15A to 15E are images taken within the 24th hour after addition of the nitric oxide releasing agents. FIGS. 16A to 16E are images taken within the 48th hour after addition of nitric oxide releasing agents. Neovascularization in the zebrafish oocyst area is indicated by the white arrows.

[5] = tested on: TIE-2; experiment: Western blot assay, TIE-2 expression; assay type: cell-based, human; details: EAHY926, 7.8 μM, 24 hours, FIG. 12
Method: as §3, §4

[6] = tested on: EAHY926 cells; experiment: Cell development index assay (Angiogenesis Analyzer for ImageJ); assay type: cell-based, human; details: EAHY926, 7.8 μM, 24th hour; for numbers of endothelial junctions (rank of effects): FIG. 7A; for numbers of endothelial meshes (rank of effects): FIG. 7B; for total branching lengths (rank of effects): FIG. 7C
Method: as §1
EAHY926 cells were seeded in cell culture plates at 37° C. […] Microscopic images were taken within the first hour and the 24th hour after the addition of nitric oxide releasing agents, and the images were analyzed by “Angiogenesis Analyzer for ImageJ” software for analyzing cell development index. The analyzed cell development parameters include cell meshes, cell junctions and cell branches.
Please refer to FIGS. 5A to 5H and FIGS. 6A to 6H. In the analysis of cell development, the gray lines were represented as cell branches of the cell-cell junction, and the more lines mean more growth of the cells. In addition, when the cells were more developed because they had more cell branches, the cells were represented by white lines. As the degree of cell development increased, cell junctions (dark gray dots) became more. Further, the cells enclosed multiple circles (black lines) which were called cell meshes.

[7] = tested on: chicken embryos; experiment: Chicken chorioallantoic membrane assay (CAM); assay type: in vivo; details: 7.8 μM injected into eggs after 6 days incubation, 2 days of culture, FIG. 20
Method: In this experimental example, the insemination eggs were placed on the egg rack and the eggs' gas chamber were placed upwards in the hatching incubator. After incubation for 6 days, the eggs were screened with an egg detector, and the insemination eggs with hatching embryos were selected. Then, small holes were respectively drilled on the air chamber end (blunt end) and a side of the selected eggs, and 7.8 μM of the respective various nitric oxide releasing agents were injected through the small holes at the blunt end, sterilized filter films were covered on the hole of the air chamber, and then ventilation tapes were put on. The eggs were continuously incubated in the incubator. After 2 days of culture, the eggs were poked and placed in Petri dishes to observe and recorded by a camera.
The condition of the control group was the eggs with no addition of nitric oxide releasing agents.

[8] = tested on: Immunodeficient nude mice; experiment: In vivo angiogenesis assay (DIVAA) in mice; parameters: species or system mouse; details: soft tubes implanted in the back, 7.8 μM, twenty days, FIG. 13
Description: as §1
Immunodeficient nude mice (6 in each group) were fixed on the operating table and anesthetized (1-3% isoflurane/100% oxygen, flow rate 1 L/min). After the mice were fixed, two 1 cm incisions were respectfully cut on the left and right back of the mice with a surgical knife. Soft tubes containing mixtures of cell nutrient agents and 7.8 μM of respective nitric oxide releasing agents were prepared. These soft tubes were implanted into the back of the mice, then the wounds were washed with normal saline and were stitched. After 20 days, the soft tubes were removed and the hemoglobins within the soft tubes were released. The total amounts of hemoglobin were analyzed by ELISA analyzer for obtaining the correlation parameters of angiogenesis.
The control group was the conditioned of the soft tube without nitric oxide releasing agents.

[9] = tested on: EAHY926 cells; experiment: Cell viability assay (MTT); assay type: cell-based, human; details: EAHY926, 24 hours, 37° C., at various concentrations, FIG. 4
Description: as §1, §2

Compound	effect on wound healing (images) [1]	cell viability (MTT) after wound healing test [2]	expression of protein VEGFR-2 (Western blot) [3]	angiogenesis (neovascularization in zebrafish oocyst area) ([4]; 24 hours, FIG. 17)	expression of protein TIE-2 (Western blot) [5]	numbers of endothelial junctions (rank of effects) [6]	numbers of endothelial meshes (rank of effects) [6]	total branching lengths (rank of effects) [6]	angiogenesis of chicken embryos (CAM) [7]	angiogenesis inside the soft tubes (total amounts of hemoglobin) [8]	angiogenesis (neovascularization in zebrafish), overall statement ([4]; 24 to 48 hours)	promotion of cell growth (cell viability, MTT) [9]
1-(hydroxy-NNO-azoxy)-L-proline, disodium salt	more significant effects on wound healing	–	–	–	–	–	–	–	–	–	–	–
NCCCN(CCCN)/[N+]([O-])=N/O [DPTA, (Z)-1-[N-(3-aminopropyl)-N-(3-ammoniopropyl)amino]diazen-1-ium-1,2-diolate]	more significant effects on wound healing	RRE-1>DPTA>MAHMA	–	–	–	–	–	–	–	–	–	–
CNCCCCCCN(C)/[N+]([O-])=N/O [MAHMA, (Z)-1-[N-Methyl-N-[6-(N-methylammoniohexyl)amino]]diazen-1-ium-1,2-diolate]	–	RRE-1>DPTA>MAHMA	only induced a small amount	most effective	only induced a small amount	RRE-1>VEGF>Spermine>MAHA	RRE-1>VEGF>MAHMA>Spermine	RRE-1>Spermine>VEGF>MAHMA	–	–	–	–
NCCCNCCCCNCCCN [Spermine]	more significant effects on wound healing	–	only induced a small amount	–	only induced a small amount	RRE-1>VEGF>Spermine>MAHA	RRE-1>VEGF>MAHMA>Spermine	RRE-1>Spermine>VEGF>MAHMA	similar	followed by VEGF and Spermine	–	–
VEGF	more significant effects on wound healing	–	only induced a small amount	–	only induced a small amount	RRE-1>VEGF>Spermine>MAHA	RRE-1>VEGF>MAHMA>Spermine	RRE-1>Spermine>VEGF>MAHMA	–	followed by VEGF and Spermine	not effective as expected	does not work better than other commercially available nitric oxide-releasing agents
